Test results reported in PubChem BioAssay (NCI).
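Following 48 hours of exposure in 96-well plates, responses at five concentrations were used to interpolate endpoints linearly. GI50: concentration for 50% inhibition of growth. TGI is the concentration that stops growth completely.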

What was measured:
Assay in all cases: NCI-60 cell line screen, 48 h
HCT-116 colon = test system: HCT-116 colon
MDA-MB-231 breast = test system: MDA-MB-231 breast
TK-10 renal = test system: TK-10 renal
HOP-62 NSCLC = test system: HOP-62 NSCLC
OVCAR-5 ovarian = test system: OVCAR-5 ovarian
SF-268 CNS = test system: SF-268 CNS
MOLT-4 leukemia = test system: MOLT-4 leukemia
SW-620 colon = test system: SW-620 colon
SN12C renal = test system: SN12C renal
T-47D breast = test system: T-47D breast
SK-MEL-5 melanoma = test system: SK-MEL-5 melanoma
SNB-75 CNS = test system: SNB-75 CNS
EKVX NSCLC = test system: EKVX NSCLC
M14 melanoma = test system: M14 melanoma
SF-539 CNS = test system: SF-539 CNS
MCF7 breast = test system: MCF7 breast
BT-549 breast = test system: BT-549 breast
SNB-19 CNS = test system: SNB-19 CNS
COLO 205 colon = test system: COLO 205 colon
SR leukemia = test system: SR leukemia
NCI-H23 lung = test system: NCI-H23 lung
NCI-H226 lung = test system: NCI-H226 lung
SK-OV-3 ovarian = test system: SK-OV-3 ovarian
UACC-257 melanoma = test system: UACC-257 melanoma
CAKI-1 renal = test system: CAKI-1 renal
OVCAR-4 ovarian = test system: OVCAR-4 ovarian
DU-145 prostate = test system: DU-145 prostate
SK-MEL-2 melanoma = test system: SK-MEL-2 melanoma
UO-31 renal = test system: UO-31 renal
UACC-62 melanoma = test system: UACC-62 melanoma
HOP-92 NSCLC = test system: HOP-92 NSCLC
U251 CNS = test system: U251 CNS
CCRF-CEM leukemia = test system: CCRF-CEM leukemia
LOX IMVI melanoma = test system: LOX IMVI melanoma
K-562 leukemia = test system: K-562 leukemia
SF-295 CNS = test system: SF-295 CNS
OVCAR-3 ovarian = test system: OVCAR-3 ovarian
HCC-2998 colon = test system: HCC-2998 colon
NCI-H522 lung = test system: NCI-H522 lung
HCT-15 colon = test system: HCT-15 colon
RPMI-8226 leukemia = test system: RPMI-8226 leukemia
HS 578T breast = test system: HS 578T breast
MDA-MB-435 = test system: MDA-MB-435
A549 NSCLC = test system: A549 NSCLC
PC-3 prostate = test system: PC-3 prostate
ACHN renal = test system: ACHN renal
RXF 393 renal = test system: RXF 393 renal
HT29 colon = test system: HT29 colon
OVCAR-8 ovarian = test system: OVCAR-8 ovarian
KM12 colon = test system: KM12 colon
NCI-H460 lung = test system: NCI-H460 lung
HL-60(TB) leukemia = test system: HL-60(TB) leukemia
NCI/ADR-RES ovarian = test system: NCI/ADR-RES ovarian
A498 renal = test system: A498 renal
MALME-3M melanoma = test system: MALME-3M melanoma
IGROV1 ovarian = test system: IGROV1 ovarian
SK-MEL-28 melanoma = test system: SK-MEL-28 melanoma
786-0 renal = test system: 786-0 renal

Q: `COc1cc(-c2cc(-c3ccc(N(C)C)cc3)nc(N3CCC(O)CC3)c2C#N)cc(OC)c1OC` was tested. Which GI50 (HCT-116 colon) did it give?
A: 287 nM

Q: And the TGI (HCT-116 colon)?
A: 1650 nM

Q: What about the GI50 (MDA-MB-231 breast) of the same molecule?
A: 392 nM

Q: What about the TGI (MDA-MB-231 breast) of the same molecule?
A: 3.55 µM

Q: What about the GI50 (TK-10 renal) of the same molecule?
A: 1810 nM

Q: What about the TGI (TK-10 renal) of the same molecule?
A: 15.7 µM

Q: And the GI50 (HOP-62 NSCLC)?
A: 953 nM

Q: What about the TGI (HOP-62 NSCLC) of the same molecule?
A: 24.3 µM

Q: And the GI50 (OVCAR-5 ovarian)?
A: 459 nM

Q: And the TGI (OVCAR-5 ovarian)?
A: > 36.3 µM

Q: What about the GI50 (SF-268 CNS) of the same molecule?
A: 1220 nM

Q: And the TGI (SF-268 CNS)?
A: 5.31 µM

Q: What about the GI50 (MOLT-4 leukemia) of the same molecule?
A: 706 nM

Q: And the TGI (MOLT-4 leukemia)?
A: 10.7 µM

Q: What about the GI50 (SW-620 colon) of the same molecule?
A: 448 nM

Q: What about the TGI (SW-620 colon) of the same molecule?
A: > 35.6 µM

Q: What about the GI50 (SN12C renal) of the same molecule?
A: 689 nM

Q: What about the TGI (SN12C renal) of the same molecule?
A: 6.44 µM

Q: What about the GI50 (T-47D breast) of the same molecule?
A: 458 nM

Q: And the TGI (T-47D breast)?
A: 4.07 µM

Q: What about the GI50 (SK-MEL-5 melanoma) of the same molecule?
A: 162 nM

Q: And the TGI (SK-MEL-5 melanoma)?
A: 508 nM

Q: What about the GI50 (SNB-75 CNS) of the same molecule?
A: 457 nM

Q: And the TGI (SNB-75 CNS)?
A: 10.1 µM

Q: What about the GI50 (EKVX NSCLC) of the same molecule?
A: 461 nM

Q: What about the TGI (EKVX NSCLC) of the same molecule?
A: > 100 µM

Q: What about the GI50 (M14 melanoma) of the same molecule?
A: 282 nM

Q: What about the TGI (M14 melanoma) of the same molecule?
A: 1300 nM

Q: What about the GI50 (SF-539 CNS) of the same molecule?
A: 820 nM

Q: And the TGI (SF-539 CNS)?
A: 3.24 µM

Q: And the GI50 (MCF7 breast)?
A: 626 nM

Q: What about the TGI (MCF7 breast) of the same molecule?
A: 3.42 µM

Q: What about the GI50 (BT-549 breast) of the same molecule?
A: 688 nM

Q: What about the TGI (BT-549 breast) of the same molecule?
A: 6.8 µM

Q: What about the GI50 (SNB-19 CNS) of the same molecule?
A: 2440 nM

Q: And the TGI (SNB-19 CNS)?
A: 23.8 µM

Q: And the GI50 (COLO 205 colon)?
A: 532 nM

Q: What about the TGI (COLO 205 colon) of the same molecule?
A: 3.42 µM

Q: And the GI50 (SR leukemia)?
A: 432 nM

Q: And the TGI (SR leukemia)?
A: 2940 nM

Q: What about the GI50 (NCI-H23 lung) of the same molecule?
A: 1350 nM

Q: And the TGI (NCI-H23 lung)?
A: 6.74 µM

Q: What about the GI50 (NCI-H226 lung) of the same molecule?
A: 717 nM

Q: What about the GI50 (SK-OV-3 ovarian) of the same molecule?
A: 2110 nM

Q: And the TGI (SK-OV-3 ovarian)?
A: 57.7 µM

Q: What about the GI50 (UACC-257 melanoma) of the same molecule?
A: 300 nM

Q: What about the TGI (UACC-257 melanoma) of the same molecule?
A: 969 nM

Q: And the GI50 (CAKI-1 renal)?
A: 22.4 nM

Q: What about the TGI (CAKI-1 renal) of the same molecule?
A: 700 nM

Q: And the GI50 (OVCAR-4 ovarian)?
A: 1210 nM

Q: What about the TGI (OVCAR-4 ovarian) of the same molecule?
A: > 100 µM

Q: And the GI50 (DU-145 prostate)?
A: 853 nM

Q: And the TGI (DU-145 prostate)?
A: > 79.6 µM

Q: What about the GI50 (SK-MEL-2 melanoma) of the same molecule?
A: 370 nM

Q: What about the TGI (SK-MEL-2 melanoma) of the same molecule?
A: 1070 nM

Q: What about the GI50 (UO-31 renal) of the same molecule?
A: 349 nM

Q: And the TGI (UO-31 renal)?
A: 3.34 µM

Q: What about the GI50 (UACC-62 melanoma) of the same molecule?
A: 277 nM

Q: What about the TGI (UACC-62 melanoma) of the same molecule?
A: 741 nM

Q: And the GI50 (HOP-92 NSCLC)?
A: 182 nM

Q: What about the TGI (HOP-92 NSCLC) of the same molecule?
A: 788 nM

Q: And the GI50 (U251 CNS)?
A: 527 nM

Q: What about the TGI (U251 CNS) of the same molecule?
A: 2830 nM

Q: And the GI50 (CCRF-CEM leukemia)?
A: 598 nM

Q: And the TGI (CCRF-CEM leukemia)?
A: > 100 µM

Q: And the GI50 (LOX IMVI melanoma)?
A: 45.5 nM

Q: And the TGI (LOX IMVI melanoma)?
A: 205 nM

Q: What about the GI50 (K-562 leukemia) of the same molecule?
A: 367 nM

Q: And the TGI (K-562 leukemia)?
A: 10.5 µM

Q: What about the GI50 (SF-295 CNS) of the same molecule?
A: 212 nM

Q: What about the TGI (SF-295 CNS) of the same molecule?
A: 518 nM

Q: What about the GI50 (OVCAR-3 ovarian) of the same molecule?
A: 1460 nM

Q: And the TGI (OVCAR-3 ovarian)?
A: 3.97 µM

Q: And the GI50 (HCC-2998 colon)?
A: 540 nM

Q: What about the TGI (HCC-2998 colon) of the same molecule?
A: 6.48 µM

Q: What about the GI50 (NCI-H522 lung) of the same molecule?
A: 338 nM

Q: What about the TGI (NCI-H522 lung) of the same molecule?
A: 1320 nM

Q: And the GI50 (HCT-15 colon)?
A: 306 nM

Q: What about the TGI (HCT-15 colon) of the same molecule?
A: 1860 nM

Q: What about the GI50 (RPMI-8226 leukemia) of the same molecule?
A: 181 nM

Q: And the TGI (RPMI-8226 leukemia)?
A: 1740 nM

Q: And the GI50 (HS 578T breast)?
A: 5.66 µM

Q: What about the TGI (HS 578T breast) of the same molecule?
A: > 100 µM

Q: What about the GI50 (MDA-MB-435) of the same molecule?
A: 325 nM

Q: What about the TGI (MDA-MB-435) of the same molecule?
A: 1270 nM

Q: And the GI50 (A549 NSCLC)?
A: 378 nM

Q: What about the GI50 (PC-3 prostate) of the same molecule?
A: 895 nM

Q: What about the TGI (PC-3 prostate) of the same molecule?
A: > 100 µM

Q: And the GI50 (ACHN renal)?
A: 478 nM

Q: And the TGI (ACHN renal)?
A: > 100 µM

Q: What about the GI50 (RXF 393 renal) of the same molecule?
A: 177 nM

Q: What about the TGI (RXF 393 renal) of the same molecule?
A: 3.27 µM

Q: And the GI50 (HT29 colon)?
A: 272 nM

Q: What about the TGI (HT29 colon) of the same molecule?
A: 1430 nM

Q: And the GI50 (OVCAR-8 ovarian)?
A: 485 nM

Q: And the TGI (OVCAR-8 ovarian)?
A: > 45.7 µM

Q: What about the GI50 (KM12 colon) of the same molecule?
A: 579 nM

Q: And the TGI (KM12 colon)?
A: 4 µM

Q: What about the GI50 (NCI-H460 lung) of the same molecule?
A: 249 nM

Q: And the TGI (NCI-H460 lung)?
A: 1900 nM

Q: What about the GI50 (HL-60(TB) leukemia) of the same molecule?
A: 574 nM

Q: What about the TGI (HL-60(TB) leukemia) of the same molecule?
A: 4.13 µM

Q: And the GI50 (NCI/ADR-RES ovarian)?
A: 350 nM

Q: What about the TGI (NCI/ADR-RES ovarian) of the same molecule?
A: > 19.8 µM

Q: And the GI50 (A498 renal)?
A: 1190 nM

Q: And the TGI (A498 renal)?
A: 19.1 µM

Q: What about the GI50 (MALME-3M melanoma) of the same molecule?
A: 475 nM

Q: What about the TGI (MALME-3M melanoma) of the same molecule?
A: 1540 nM

Q: And the GI50 (IGROV1 ovarian)?
A: 555 nM

Q: And the TGI (IGROV1 ovarian)?
A: 38.4 µM

Q: And the GI50 (SK-MEL-28 melanoma)?
A: 992 nM

Q: And the TGI (SK-MEL-28 melanoma)?
A: 3.23 µM

Q: What about the GI50 (786-0 renal) of the same molecule?
A: 399 nM

Q: And the TGI (786-0 renal)?
A: > 100 µM
